Laboratory results as given in US20170152226A1, “FUNCTIONALISED AND SUBSTITUTED INDOLES AS ANTI-CANCER AGENTS” (Novogen Ltd., priority 2014, published 2017).
pIC50: −log10 of the molar value.

Experiments:
Assay type in all cases: cell-based
[1] = system: Tpm3.1-containing actin filaments in SK-N-SH neuroblastoma cells; experiment: Microfilament disruption assay, γ9d staining; settings: 0-40 μM, 24 hours post treatment
Protocol: (§1) FIG. 2: Imaging and quantitation of actin filaments in SK-N-SH neuroblastoma cells treated with compound (A) 3504, (B) 3507 and (C) 3516. Cells were stained with γ9d (sheep polycolonal, 1:100) followed by 488-conjugated secondary (1:1000) and DAPI to visualize the Tpm3.1 containing filament bundles and the nucleus, respectively. Shown in the top panel is a representative grey scale immunofluorescent image from control (vehicle alone), 5 μM and 10 μM treated cells. […] The coloured lines indicate the detected actin filaments. Also shown is the quantitation of cell number, filament number/cell and filament number/cell area (μM^2). […]
(§2) The ability of compounds 3504, 3507 and 3516 to disrupt the total actin cytoskeleton (FIG. 1) and to specifically target Tpm3.1-containing actin filaments (FIG. 2) was assessed in vitro using the microfilament disruption assay.
(§3) Briefly, SK-N-SH neuroblastoma cells were seeded at 1800 cells/well in a 384 Perkin Elmer High Content Imaging “View” plate and left to plate down 24 hours prior to treatment. […] Images were then exported and changes in the organization and numbers of actin filaments within the cell were quantitated using a linear feature detection algorithm developed by the CSIRO (Vindin et al., 2014). […] It is these “ridge lines” that correspond to actin filament bundles and allow us to quantitate the number of filaments per cell.

[2] = system: total actin cytoskeleton in SK-N-SH neuroblastoma cells; experiment: Microfilament disruption assay, phalloidin staining; settings: 0-40 μM, 24 hours post treatment
Protocol: as §1, with “1:” for “2:”, “488-Atto-Phallodin” for “γ9d (sheep polycolonal, 1:100) followed by 488-conjugated secondary (1:1000)”, “actin” for “Tpm3.1 containing”
as §2, §3

MDA-MB-231 = experiment: Anti-proliferative activity, cell-titre luminescent viability assay; settings: Homo sapiens, MDA-MB-231, 72 h, 0.03, 0.3, 3 and 30 μM, linear regression of semi-log plots, read-out: IC50 Breast MDA-MB-231
Summary of the method: (§4)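 Cells were seeded at pre-determined densities, cultured 24 hours at 37° C/5% CO2, then exposed 72 hours to compound at 0.03, 0.3, 3 and 30 μM or at 0.1, 0.3, 1, 3, 10 and 30 μM. Viability was read by cell-titre luminescence after 30 min, normalized to untreated control, and IC50 or EC50 derived.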

A549 = experiment: as above; settings: Homo sapiens, A549, 72 h, 0.03, 0.3, 3 and 30 μM, linear regression of semi-log plots, read-out: IC50 Lung (NSLC) A549
Summary of the method: as §4

CaCo2 = experiment: as above; settings: Homo sapiens, Caco-2, 72 h, 0.03, 0.3, 3 and 30 μM, linear regression of semi-log plots, read-out: IC50 Colorectal CaCo2
Summary of the method: as §4

SK-N-SH = experiment: as above; settings: Homo sapiens, SK-N-SH, 72 h, 0.03, 0.3, 3 and 30 μM, linear regression of semi-log plots, read-out: IC50 Neuroblastoma SK-N-SH
Summary of the method: as §4

PC3 = experiment: as above; settings: Homo sapiens, PC-3, 72 h, 0.03, 0.3, 3 and 30 μM, linear regression of semi-log plots, read-out: IC50 Prostate PC3
Summary of the method: as §4

DU145 = experiment: as above; settings: Homo sapiens, DU-145, 72 h, 0.03, 0.3, 3 and 30 μM, linear regression of semi-log plots, read-out: IC50 Prostate DU145
Summary of the method: as §4

SK-Mel-28 = experiment: as above; settings: Homo sapiens, SK-MEL-28; 72 hours; 0.03, 0.3, 3 and 30 μM; linear regression of semi-log plots; read-out: IC50 Melanoma SK-Mel-28
Summary of the method: as §4

pIC50 (MDA-MB-231): 5.89 | pIC50 (A549): 5.66 | pIC50 (CaCo2): 5.68 | pIC50 (SK-N-SH): 5.85 | pIC50 (PC3): 5.46 | pIC50 (DU145): 5.52 | pIC50 (SK-Mel-28): 5.59
SMILES: Cc1c(C)n(CCCN2CCN(C)CC2)c2ccc(Nc3cccc(C(=O)N4CCN(CCc5cccc(F)c5)CC4)c3)cc12 [Compound 3516, (3-((2,3-dimethyl-1-(3-(4-methylpiperazin-1-yl)propyl)-1H-indol-5-yl)amino)phenyl)(4-(3-fluorophenethyl)piperazin-1-yl)methanone]
disruption of Tpm3.1-containing actin filaments [1]: in a dose-dependent manner | disruption of the total actin cytoskeleton [2]: in a dose-dependent manner
